Tests used:
p38a/PRAK = p38a/PRAK (Homo sapiens (Human), UniProt Q16539); assay: p38a/PRAK biochemical assay: activation of PRAK by p38, FITC-HSP27 peptide phosphorylation (IMAP FP); settings: 10-point 1:3 dilution, top dose 300 μM; 60 pM active p38a, 1 nM inactive PRAK, 10 μM ATP, 2 h incubation; read-out: p38a/PRAK Enzyme pIC50 (converted)
How it was run: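 GST-tagged MK2 (F46–H400) and PRAK (M1–Q471), expressed in E. coli, activated by p38 and phosphorylate FITC-HSP27 peptide over 2 h with compound; readout by IMAP fluorescence polarisation (ex 485/em 528 nm). Ten-point 1:3 dilutions, top dose 1 μM for MK2 and 300 μM for PRAK. IC50 after vehicle normalisation; selectivity = IC50(PRAK)/IC50(MK2).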

p38a/MK2 = p38a/MK2 (Homo sapiens (Human), UniProt P49137+Q16539); assay: p38a/MK2 biochemical assay: activation of MK2 by p38, FITC-HSP27 peptide phosphorylation (IMAP FP); settings: 10-point 1:3 dilution, top dose 1 μM; 60 pM active p38a, 1 nM inactive MK2, 10 μM ATP, 2 h incubation; read-out: p38a/MK2 (1 μM) Enzyme pIC50 (converted)
p38a/MK2, sequence (P49137 46-400): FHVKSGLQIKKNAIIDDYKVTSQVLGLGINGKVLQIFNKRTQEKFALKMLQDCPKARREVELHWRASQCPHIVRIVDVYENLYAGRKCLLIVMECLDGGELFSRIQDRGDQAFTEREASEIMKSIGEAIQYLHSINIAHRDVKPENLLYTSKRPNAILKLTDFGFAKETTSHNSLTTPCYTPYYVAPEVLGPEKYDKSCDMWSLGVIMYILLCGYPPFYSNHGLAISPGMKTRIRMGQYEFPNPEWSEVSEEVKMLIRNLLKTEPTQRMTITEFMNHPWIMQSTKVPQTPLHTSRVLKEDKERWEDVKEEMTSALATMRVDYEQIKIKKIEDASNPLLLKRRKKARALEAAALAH
p38a/MK2, sequence (Q16539 whole entry): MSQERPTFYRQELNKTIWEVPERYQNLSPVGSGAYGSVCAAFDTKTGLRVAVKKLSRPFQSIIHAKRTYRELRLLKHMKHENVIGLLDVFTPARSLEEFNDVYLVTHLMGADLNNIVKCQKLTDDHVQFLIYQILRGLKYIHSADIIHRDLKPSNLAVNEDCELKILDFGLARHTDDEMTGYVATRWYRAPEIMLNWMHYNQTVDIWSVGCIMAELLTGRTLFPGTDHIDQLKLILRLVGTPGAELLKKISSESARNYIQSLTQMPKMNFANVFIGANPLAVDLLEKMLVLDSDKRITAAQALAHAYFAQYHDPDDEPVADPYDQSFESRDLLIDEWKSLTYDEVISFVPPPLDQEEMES

p38a/PRAK, sequence (Q16539 whole entry): as above

SMILES | IC50 (p38a/PRAK) [µM] | IC50 (p38a/MK2) [nM]
Cc1cnc(-c2ccnc(C3(O)CCC3)n2)cc1-n1c(C)cc(OCc2ncc(F)cc2F)c(Cl)c1=O (single isomer, unassigned) [Example 41A, rel-3-chloro-4-[(3,5-difluoropyridin-2-yl)methoxy]-2′-[2-(1-hydroxycyclobutyl)pyrimidin-4-yl]-5′,6-dimethyl-[1,4′-bipyridin]-2-one] | 3.16 | 5.01
Cc1cnc(-c2ccnc(C3(O)CCC3)n2)cc1-n1c(C)cc(OCc2ncc(F)cc2F)c(Cl)c1=O (single isomer, unassigned) [Example 41B, rel-3-chloro-4-[(3,5-difluoropyridin-2-yl)methoxy]-2′-[2-(1-hydroxycyclobutyl)pyrimidin-4-yl]-5′,6-dimethyl-[1,4′-bipyridin]-2-one] | > 316 | > 1000
Cc1cnc(-c2nc(C(C)(C)O)n(C)n2)cc1-n1c(C)cc(OCc2ncc(F)cc2F)c(Cl)c1=O (single isomer, unassigned) [Example 42A, rel-3-chloro-4-[(3,5-difluoropyridin-2-yl)methoxy]-2′-[5-(2-hydroxypropan-2-yl)-1-methyl-1,2,4-triazol-3-yl]-5′,6-dimethyl-[1,4′-bipyridin]-2-one] | 6.31 | 501
Cc1cnc(-c2nc(C(C)(C)O)n(C)n2)cc1-n1c(C)cc(OCc2ncc(F)cc2F)c(Cl)c1=O (single isomer, unassigned) [Example 42B, rel-3-chloro-4-[(3,5-difluoropyridin-2-yl)methoxy]-2′-[5-(2-hydroxypropan-2-yl)-1-methyl-1,2,4-triazol-3-yl]-5′,6-dimethyl-[1,4′-bipyridin]-2-one] | > 316 | > 1000
Cc1cnc(-c2ccnc(N(C)CCO)n2)cc1-n1c(C)cc(OCc2ncc(F)cc2F)c(Cl)c1=O (single isomer, unassigned) [Example 43A, rel-3-chloro-4-[(3,5-difluoropyridin-2-yl)methoxy]-2′-{2-[(2-hydroxyethyl)(methyl)amino]pyrimidin-4-yl}-5′,6-dimethyl-[1,4′-bipyridin]-2-one] | 2.51 | 12.6
Cc1cnc(-c2ccnc(N(C)CCO)n2)cc1-n1c(C)cc(OCc2ncc(F)cc2F)c(Cl)c1=O (single isomer, unassigned) [Example 43B, rel-3-chloro-4-[(3,5-difluoropyridin-2-yl)methoxy]-2′-{2-[(2-hydroxyethyl)(methyl)amino]pyrimidin-4-yl}-5′,6-dimethyl-[1,4′-bipyridin]-2-one] | > 316 | > 1000
Cc1cnc(-n2ccc(C(=O)NC3CC3)n2)cc1-n1c(C)cc(OCc2ncc(F)cc2F)c(Cl)c1=O (single isomer, unassigned) [Example 44B, rel-1-{3-chloro-4-[(3,5-difluoropyridin-2-yl)methoxy]-5′,6-dimethyl-2-oxo-[1,4′-bipyridin]-2′-yl}-N-cyclopropylpyrazole-3-carboxamide] | > 316 | > 1000
Cc1ncc(-c2ccnc(C(C)(C)O)n2)cc1-n1c(C)cc(OCc2ncc(F)cc2F)c(Cl)c1=O (single isomer, unassigned) [Example 45A, rel-3-chloro-4-[(3,5-difluoropyridin-2-yl)methoxy]-5′-[2-(2-hydroxypropan-2-yl)pyrimidin-4-yl]-2′,6-dimethyl-[1,3′-bipyridin]-2-one] | > 316 | > 1000
Cc1ncc(-c2ccnc(C(C)(C)O)n2)cc1-n1c(C)cc(OCc2ncc(F)cc2F)c(Cl)c1=O (single isomer, unassigned) [Example 45B, rel-3-chloro-4-[(3,5-difluoropyridin-2-yl)methoxy]-5′-[2-(2-hydroxypropan-2-yl)pyrimidin-4-yl]-2′,6-dimethyl-[1,3′-bipyridin]-2-one] | 39.8 | 501
Cc1cnc(-n2ccc(CC(C)(C)O)n2)cc1-n1c(C)cc(OCc2ncc(F)cc2F)c(Cl)c1=O (single isomer, unassigned) [Example 46A, rel-3-chloro-4-[(3,5-difluoropyridin-2-yl)methoxy]-2′-[3-(2-hydroxy-2-methylpropyl)pyrazol-1-yl]-5′,6-dimethyl-[1,4′-bipyridin]-2-one] | 2.51 | 15.8
Cc1cnc(-n2ccc(CC(C)(C)O)n2)cc1-n1c(C)cc(OCc2ncc(F)cc2F)c(Cl)c1=O (single isomer, unassigned) [Example 46B, rel-3-chloro-4-[(3,5-difluoropyridin-2-yl)methoxy]-2′-[3-(2-hydroxy-2-methylpropyl)pyrazol-1-yl]-5′,6-dimethyl-[1,4′-bipyridin]-2-one] | > 316 | > 1000
Cc1cnc(-n2ccc(C(C)(C)O)n2)cc1-n1c(C)cc(OCc2ncc(F)cc2Cl)c(Cl)c1=O (single isomer, unassigned) [Example 47A, rel-3-chloro-4-[(3-chloro-5-fluoropyridin-2-yl)methoxy]-2′-[3-(2-hydroxypropan-2-yl)pyrazol-1-yl]-5′,6-dimethyl-[1,4′-bipyridin]-2-one] | 5.01 | 2
Cc1cnc(-n2ccc(C(C)(C)O)n2)cc1-n1c(C)cc(OCc2ncc(F)cc2Cl)c(Cl)c1=O (single isomer, unassigned) [Example 47B, rel-3-chloro-4-[(3-chloro-5-fluoropyridin-2-yl)methoxy]-2′-[3-(2-hydroxypropan-2-yl)pyrazol-1-yl]-5′,6-dimethyl-[1,4′-bipyridin]-2-one] | > 316 | > 1000

Other lines, results leading:

IC50 (p38a/PRAK) [µM] | IC50 (p38a/MK2) [nM] | SMILES
2 | 5.01 | Cc1cnc(-c2ccnc(CC3(O)CC3)n2)cc1-n1c(C)cc(OCc2ncc(F)cc2F)c(Cl)c1=O (single isomer, unassigned) [Example 48A, rel-3-chloro-4-[(3,5-difluoropyridin-2-yl)methoxy]-2′-{2-[(1-hydroxycyclopropyl)methyl]pyrimidin-4-yl}-5′,6-dimethyl-[1,4′-bipyridin]-2-one]
> 316 | > 1000 | Cc1cnc(-c2ccnc(CC3(O)CC3)n2)cc1-n1c(C)cc(OCc2ncc(F)cc2F)c(Cl)c1=O (single isomer, unassigned) [Example 48B, rel-3-chloro-4-[(3,5-difluoropyridin-2-yl)methoxy]-2′-{2-[(1-hydroxycyclopropyl)methyl]pyrimidin-4-yl}-5′,6-dimethyl-[1,4′-bipyridin]-2-one]
3.16 | 6.31 | Cc1cnc(-c2ccnc(C(C)(C)O)n2)c(C)c1-n1c(C)cc(OCc2ncc(F)cc2F)c(Cl)c1=O (single isomer, unassigned) [Example 49A, rel-3-chloro-4-((3,5-difluoropyridin-2-yl)methoxy)-2′-(2-(2-hydroxypropan-2-yl)pyrimidin-4-yl)-3′,5′,6-trimethyl-2H-[1,4′-bipyridin]-2-one]
> 316 | > 1000 | Cc1cnc(-c2ccnc(C(C)(C)O)n2)c(C)c1-n1c(C)cc(OCc2ncc(F)cc2F)c(Cl)c1=O (single isomer, unassigned) [Example 49B, rel-3-chloro-4-((3,5-difluoropyridin-2-yl)methoxy)-2′-(2-(2-hydroxypropan-2-yl)pyrimidin-4-yl)-3′,5′,6-trimethyl-2H-[1,4′-bipyridin]-2-one]
10 | 12.6 | Cc1cnc(-n2ccc(C(C)(C)O)n2)c(C)c1-n1c(C)cc(OCc2ncc(F)cc2F)c(Cl)c1=O (single isomer, unassigned) [Example 50A, rel-3-chloro-4-[(3,5-difluoropyridin-2-yl)methoxy]-2′-[3-(2-hydroxypropan-2-yl)pyrazol-1-yl]-3′,5′,6-trimethyl-[1,4′-bipyridin]-2-one]
> 316 | > 1000 | Cc1cnc(-n2ccc(C(C)(C)O)n2)c(C)c1-n1c(C)cc(OCc2ncc(F)cc2F)c(Cl)c1=O (single isomer, unassigned) [Example 50B, rel-3-chloro-4-[(3,5-difluoropyridin-2-yl)methoxy]-2′-[3-(2-hydroxypropan-2-yl)pyrazol-1-yl]-3′,5′,6-trimethyl-[1,4′-bipyridin]-2-one]
5.01 | 79.4 | Cc1cnc(-c2cncc(C(C)(C)O)n2)cc1-n1c(C)cc(OCc2ncc(F)cc2F)c(Cl)c1=O (single isomer, unassigned) [Example 51A, rel-3-chloro-4-[(3,5-difluoropyridin-2-yl)methoxy]-2′-[6-(2-hydroxypropan-2-yl)pyrazin-2-yl]-5′,6-dimethyl-[1,4′-bipyridin]-2-one]
> 316 | > 1000 | Cc1cnc(-c2cncc(C(C)(C)O)n2)cc1-n1c(C)cc(OCc2ncc(F)cc2F)c(Cl)c1=O (single isomer, unassigned) [Example 51B, rel-3-chloro-4-[(3,5-difluoropyridin-2-yl)methoxy]-2′-[6-(2-hydroxypropan-2-yl)pyrazin-2-yl]-5′,6-dimethyl-[1,4′-bipyridin]-2-one]
> 316 | > 1000 | Cc1c(-n2c(C)cc(OCc3ncc(F)cc3F)c(Cl)c2=O)ccnc1-n1ccc(C(C)(C)O)n1 (single isomer, unassigned) [Example 52A, rel-3-chloro-4-((3,5-difluoropyridin-2-yl)methoxy)-2′-(3-(2-hydroxypropan-2-yl)-1H-pyrazol-1-yl)-3′,6-dimethyl-2H-[1,4′-bipyridin]-2-one]
25.1 | 15.8 | Cc1c(-n2c(C)cc(OCc3ncc(F)cc3F)c(Cl)c2=O)ccnc1-n1ccc(C(C)(C)O)n1 (single isomer, unassigned) [Example 52B, rel-3-chloro-4-((3,5-difluoropyridin-2-yl)methoxy)-2′-(3-(2-hydroxypropan-2-yl)-1H-pyrazol-1-yl)-3′,6-dimethyl-2H-[1,4′-bipyridin]-2-one]

Source: patent US11680056B2, “MK2 inhibitors and uses thereof” (Xinthera, Inc., priority 2021, dated 2023)
